Structures can show the parent of a compound that is named as a salt.
Experiments:
[1] = target: IRAK1 (His-TEV-IRAK1 (194-712)) (Homo sapiens (Human), UniProt P51617); test: IRAK1 enzymatic assay; assay type: biochemical
How it was run: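 Recombinant His-TEV-IRAK1 (194-712), 15 ng/well, autophosphorylation with 1 μM ATP plus [33P]ATP, 3 h at 30° C in Hepes pH 7.0 buffer with MgCl2, DTT, EGTA, BSA and Triton; compounds from 20 µM to 1 nM. The reaction was stopped with EDTA, and radioactivity was counted in streptavidin FlashPlates.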

IRAK4 = IRAK4 (Homo sapiens (Human), UniProt Q9NWZ3); test: IRAK4 enzymatic assay; assay type: biochemical
How it was run: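 Recombinant His-TEV-IRAK4 (20 ng/well) phosphorylating biotinylated STK1 peptide (300 nM) with 2 μM ATP plus [^33P]ATP, 3 h at 30° C in pH 7.0 Hepes buffer with Mg2+ and Mn2+. Compounds 20 µM to 1 nM; EDTA stop, radioactivity captured on streptavidin FlashPlates.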

[2] = test system: TLR7 induced IL-6 secretion in human mononuclear cells (PBMC's); test: TLR7 induced IL-6 in human PBMC's; assay type: cell-based; conditions: Homo sapiens, PBMC, read-out: TLR7 induced IL-6 secretion in hPBMC's (IC50)
Description: TLR7 Induced IL-6 in Human PBMC's
Human PBMC assay was used as one of the functional assay a to monitor the activity of IRAK1 and IRAK4 small molecule inhibitors on TLR7 induced IL-6 secretion in human mononuclear cells (PBMC's). Human PBMCs were prepared from buffy coats (whole blood enriched with leukocytes and platelets) obtained from healthy volunteers used either fresh or frozen are plated in assay media (RPMI+2% P/S/L-glu+10% HI-FBS) and pre-treated with compounds in DMSO/media (range of concentrations from 25 uM to 0.4 nM) or controls (0.25% DMSO) for 30 minutes at 37° C. in assay media. Following pre-treatment with IRAK1 and IRAK4 inhibitors, PBMC's were stimulated with TLR7 specific ligand (2 uM) overnight (16-18 hrs) at 37° C. After incubation supernatant was transferred to 384 well PE AlphaPlate-384 (6005350) and IL-6 is quantified using Perkin Elmer IL-6 Alpha LISA kit (AL223C). Plates were read on an Envision® plate reader with Alpha Technology®.

IRAK1 (His-TEV-IRAK1 (194-712)), sequence (P51617 194-712): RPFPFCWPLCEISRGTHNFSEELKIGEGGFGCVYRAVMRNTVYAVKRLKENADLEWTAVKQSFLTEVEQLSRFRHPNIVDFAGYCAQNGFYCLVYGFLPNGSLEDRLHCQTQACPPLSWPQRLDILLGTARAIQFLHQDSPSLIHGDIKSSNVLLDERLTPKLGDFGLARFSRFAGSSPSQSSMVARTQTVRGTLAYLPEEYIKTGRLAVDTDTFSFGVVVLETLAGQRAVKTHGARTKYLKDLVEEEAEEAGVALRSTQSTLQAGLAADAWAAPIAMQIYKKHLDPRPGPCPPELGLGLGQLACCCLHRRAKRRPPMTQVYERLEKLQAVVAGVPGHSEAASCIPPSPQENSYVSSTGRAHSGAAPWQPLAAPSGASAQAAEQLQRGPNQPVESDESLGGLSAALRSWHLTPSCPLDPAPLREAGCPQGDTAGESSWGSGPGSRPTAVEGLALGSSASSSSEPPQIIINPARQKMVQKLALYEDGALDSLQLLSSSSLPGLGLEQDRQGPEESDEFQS
IRAK4, sequence (Q9NWZ3 whole entry): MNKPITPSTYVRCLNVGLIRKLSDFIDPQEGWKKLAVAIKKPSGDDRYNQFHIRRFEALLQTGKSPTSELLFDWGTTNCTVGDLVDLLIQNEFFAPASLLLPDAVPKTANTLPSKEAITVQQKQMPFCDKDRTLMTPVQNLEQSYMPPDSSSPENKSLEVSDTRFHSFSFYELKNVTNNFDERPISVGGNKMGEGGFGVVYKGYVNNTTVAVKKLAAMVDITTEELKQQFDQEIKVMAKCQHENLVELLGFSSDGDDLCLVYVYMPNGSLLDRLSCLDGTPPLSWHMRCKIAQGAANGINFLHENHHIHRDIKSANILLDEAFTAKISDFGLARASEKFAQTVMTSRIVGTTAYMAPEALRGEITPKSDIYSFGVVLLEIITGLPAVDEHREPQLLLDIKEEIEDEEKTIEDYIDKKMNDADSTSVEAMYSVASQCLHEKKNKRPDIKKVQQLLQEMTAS

Row | Structure (SMILES) | IC50 [1] [nM] | IC50 (IRAK4) [nM] | IC50 [2] [nM]
1 | Cn1cc(-c2cccc(-c3ncc(-c4cnn(C)c4)c(NC4CC(F)(F)C4)n3)c2)cn1 [Example 48] | 100 to 1000 | 100 to 1000 | > 5000
2 | Cn1cc(-c2cccc(-c3ncc(-c4cnn(C)c4)c(N[C@H]4C[C@@H](S(C)(=O)=O)C4)n3)c2)cn1 [Example 49] | 100 to 1000 | 100 to 1000 | > 5000
3 | Cn1cc(-c2cccc(-c3ncc(-c4cnn(C)c4)c(NC4CC(F)C4)n3)c2)cn1 (stereo not drawn) [Example 50] | 100 to 1000 | 100 to 1000 | 1000 to 5000
4 | Cn1cc(-c2cccc(-c3ncc(-c4cnn(C)c4)c(NCC4(O)COC4)n3)c2)cn1 [Example 52] | 100 to 1000 | < 100 | 1000 to 5000
5 | Cn1cc(-c2cccc(-c3ncc(-c4cnn(C)c4)c(NCC4(CO)CCC4)n3)c2)cn1 [Example 53] | 100 to 1000 | < 100 | 1000 to 5000
6 | Cn1cc(-c2cccc(-c3ncc(-c4cnn(C)c4)c(NC[C@H](O)CO)n3)c2)cn1 [Example 54] | 100 to 1000 | 100 to 1000 | 1000 to 5000
7 | Cn1cc(-c2cccc(-c3ncc(-c4cnn(C)c4)c(NCCN4CCS(=O)(=O)CC4)n3)c2)cn1 [Example 55] | 100 to 1000 | < 100 | 1000 to 5000
8 | Cn1cc(-c2cccc(-c3ncc(-c4cnn(C)c4)c(NC[C@@H](O)CO)n3)c2)cn1 [Example 56] | > 5000 | < 100 | 1000 to 5000
9 | CC(=O)NCCNc1nc(-c2cccc(-c3cnn(C)c3)c2)ncc1-c1cnn(C)c1 [Example 57] | 100 to 1000 | 100 to 1000 | > 5000
10 | Cn1cc(-c2cccc(-c3ncc(-c4cnn(C)c4)c(N[C@H]4CCC(=O)NC4)n3)c2)cn1 [Example 60] | 1000 to 5000 | 100 to 1000 | 1000 to 5000
11 | Cn1cc(-c2cccc(-c3ncc(-c4cnn(C)c4)c(N[C@H]4C[C@@H](N)C4)n3)c2)cn1 [Example 62] | 1000 to 5000 | 100 to 1000 | 1000 to 5000
12 | Cn1cc(-c2cccc(-c3ncc(-c4cnn(C)c4)c(NCC4COC4)n3)c2)cn1 [Example 63] | 100 to 1000 | < 100 | 1000 to 5000
13 | Cn1cc(-c2cccc(-c3ncc(-c4cnn(C)c4)c(NC4CC5(CC(N)C5)C4)n3)c2)cn1 (stereo not drawn) [Example 65] | 100 to 1000 | < 100 | 100 to 1000
14 | Cn1cc(-c2cccc(-c3ncc(-c4cnn(C)c4)c(NC45CCC(N)(C4)C5)n3)c2)cn1 [Example 66] | < 100 | < 100 | 100 to 1000
15 | Cn1cc(-c2cccc(-c3ncc(-c4cnn(C)c4)c(NCC4CCNC(=O)C4)n3)c2)cn1 (stereo not drawn) [Example 76] | 1000 to 5000 | 100 to 1000 | > 5000
16 | Cn1cc(-c2cccc(-c3ncc(-c4cnn(C)c4)c(NCC4[C@H]5CNC[C@@H]45)n3)c2)cn1 (stereo partly drawn) [Example 77] | > 5000 | 100 to 1000 | 1000 to 5000
17 | Cn1cc(-c2cccc(-c3ncc(-c4ccn(C)n4)c(NCC4CC(F)(F)C4)n3)c2)cn1 [Example 81] | 1000 to 5000 | 100 to 1000 | > 5000
18 | Cn1cc(-c2cccc(-c3ncc(-c4ccn(C)n4)c(NC[C@@H](O)CO)n3)c2)cn1 [Example 83] | 1000 to 5000 | 100 to 1000 | 100 to 1000
19 | Cn1cc(-c2cccc(-c3ncc(-c4ccn(C)n4)c(NCCN4CCS(=O)(=O)CC4)n3)c2)cn1 [Example 84] | 1000 to 5000 | 100 to 1000 | > 5000
20 | Cn1cc(-c2cccc(-c3ncc(-c4cnn(C)c4)c(NCCC4CCNC4)n3)c2)cn1 (stereo not drawn) [Example 85] | > 5000 | 100 to 1000 | 1000 to 5000
21 | Cn1cc(-c2cccc(-c3ncc(-c4cnn([C@H]5CC[C@]6(CCC(=O)N6C)CC5)c4)c(NCC4CCNCC4)n3)c2)cn1 [Example 86, 1-Methyl-8-(4-{2-[3-(1-methyl-1H-pyrazol-4-yl)-phenyl]-4-[(piperidin-4-ylmethyl)-amino]-pyrimidin-5-yl}-pyrazol-1-yl)-1-aza-spiro[4.5]decan-2-one Hydrochloride] | 1000 to 5000 | < 100 | > 5000
22 | CN1CCC(CNc2nc(-c3cccc(-c4cnn(C)c4)c3)ncc2-c2cnn([C@H]3CC[C@]4(CCC(=O)N4C)CC3)c2)CC1 [Example 87, 1-Methyl-8-(4-{4-[(1-methyl-piperidin-4-ylmethyl)-amino]-2-[3-(1-methyl-1H-pyrazol-4-yl)-phenyl]-pyrimidin-5-yl}-pyrazol-1-yl)-1-aza-spiro[4.5]decan-2-one] | 1000 to 5000 | < 100 | 1000 to 5000
23 | Cn1cc(-c2cccc(-c3ncc(-c4ccn(C)n4)c(NC4(CO)COC4)n3)c2)cn1 [Example 93] | 100 to 1000 | < 100 | 100 to 1000

Row | Structure (SMILES) | IC50 [1] [nM] | IC50 (IRAK4) [nM] | IC50 [2] [nM]
24 | Cn1cc(-c2cccc(-c3ncc(-c4ccn(C)n4)c(NCCCCO)n3)c2)cn1 [Example 97] | 100 to 1000 | < 100 | 1000 to 5000
25 | Cn1cc(-c2cccc(-c3ncc(-c4ccn(C)n4)c(NC4CC(CN)(CCl)C4)n3)c2)cn1 (stereo not drawn) [Example 99] | 100 to 1000 | < 100 | 100 to 1000
26 | Cn1cc(-c2cccc(-c3ncc(-c4cnn(C)c4)c(NCCCCO)n3)c2)cn1 [Example 101] | 1000 to 5000 | < 100 | 100 to 1000
27 | Cn1cc(-c2cccc(-c3ncc(-c4cnn(C)c4)c(NCC4(O)CCNCC4(C)C)n3)c2)cn1 (stereo not drawn) [Example 112] | 1000 to 5000 | 100 to 1000 | 1000 to 5000
28 | Cn1cc(-c2cccc(-c3ncc(-c4ccn(C)n4)c(NCC4CNCCO4)n3)c2)cn1 (stereo not drawn) [Example 115] | > 5000 | 100 to 1000 | 100 to 1000
29 | Cn1cc(-c2cccc(-c3ncc(-c4cnn(C)c4)c(OCC4CCCO4)n3)c2)cn1 (stereo not drawn) [Example 118] | 1000 to 5000 | < 100 | 1000 to 5000
30 | Cn1cc(-c2cccc(-c3ncc(-c4ccn(C)n4)c(NC4CCOC4)n3)c2)cn1 (stereo not drawn) [Example 119] | 1000 to 5000 | 100 to 1000 | > 5000
31 | Cn1cc(-c2cccc(-c3ncc(-c4cnn(C)c4)c(NCC4CCCC(O)C4)n3)c2)cn1 (stereo not drawn) [Example 123] | 100 to 1000 | < 100 | 100 to 1000
32 | Cn1cc(-c2cccc(-c3ncc(-c4ccn(C)n4)c(NC4CCCCNC4)n3)c2)cn1 (stereo not drawn) [Example 125] | > 5000 | 100 to 1000 | 100 to 1000
33 | Cc1nnc(-c2cnc(-c3cccc(-c4cnn(C)c4)c3)nc2NCCN2CCS(=O)(=O)CC2)s1 [Example 127] | > 5000 | < 100 | 100 to 1000
34 | Cc1nnc(-c2cnc(-c3cccc(-c4cnn(C)c4)c3)nc2NC2CCC(N)CC2)s1 (stereo not drawn) [Example 128] | 100 to 1000 | < 100 | 100 to 1000
35 | Cc1nnc(-c2cnc(-c3cccc(-c4cnn(C)c4)c3)nc2N[C@H]2CC[C@@H](NS(C)(=O)=O)CC2)s1 [Example 129] | 100 to 1000 | < 100 | 100 to 1000
36 | Cn1cc(-c2cccc(-c3ncc(-c4cnn(C)c4)c(NCCC(C)(C)O)n3)c2)cn1 [Example 135] | 100 to 1000 | < 100 | 100 to 1000
37 | Cn1cc(-c2cccc(-c3ncc(-c4cnn(C)c4)c(NCC4CCC(F)(F)CC4)n3)c2)cn1 [Example 136] | 100 to 1000 | < 100 | 1000 to 5000
38 | Cn1cc(-c2cccc(-c3ncc(-c4cnn(C)c4)c(NC4CCOCC4)n3)c2)cn1 [Example 137] | 100 to 1000 | < 100 | 100 to 1000
39 | Cn1cc(-c2cccc(-c3ncc(-c4ccn(C)n4)c(NC4CCOCC4)n3)c2)cn1 [Example 138] | 1000 to 5000 | < 100 | 1000 to 5000
40 | CN(CC1CC(F)(F)C1)c1nc(-c2cccc(-c3cnn(C)c3)c2)ncc1-c1cnn(C)c1 [Example 141] | 1000 to 5000 | 100 to 1000 | 1000 to 5000
41 | Cn1cc(-c2cccc(-c3ncc(-c4cnn(C)c4)c(N[C@H]4CC[C@H](N)CC4)n3)c2)cn1 [Example 143] | 100 to 1000 | < 100 | 100 to 1000
42 | Cc1nnc(-c2cnc(-c3cccc(-c4cnn(C)c4)c3)nc2NCCN2CCOCC2)s1 [Example 146] | > 5000 | < 100 | 1000 to 5000
43 | Cn1cc(-c2cccc(-c3ncc(-c4cnn(C)c4)c(N[C@H]4CC[C@H](O)CC4)n3)c2)cn1 [Example 149] | 100 to 1000 | < 100 | 100 to 1000
44 | Cn1cc(-c2cccc(-c3ncc(-c4ccn(C)n4)c(NC4C5CCCC4CC(N)C5)n3)c2)cn1 (stereo not drawn) [Example 152] | 100 to 1000 | < 100 | 100 to 1000
45 | Cn1cc(-c2cccc(-c3ncc(-c4cnn(C)c4)c(NC4C5CCCC4CC(N)C5)n3)c2)cn1 (stereo not drawn) [Example 153] | 100 to 1000 | < 100 | 100 to 1000

Reference: patent US9790221B2, “Heteroaryl compounds as IRAK inhibitors and uses thereof” (Merck Patent GmbH, priority 2014, dated 2017)
